Where two headings read alike, the source gives them in different places.
Tests used:
[1] = Acid-base titration (pKa); assay type: physicochemical
Experimental: Acid-base titrations were carried out under the following conditions: the sample was dissolved in a mixture methyl cellosolve/H2 O 4/1, then an excess of 0.01M HCl in the same solvent mixture was added and the resulting solution was titrated with 0.01N NaOH.

[2] = tested on: Staphylococcus aureus Tour; assay: In vitro MIC, two-fold dilution test in microtiter; assay type: cell-based; settings: Oxoid ISO-SENSITEST broth, inoculum about 10^4 CFU/ml, 18-24 h at 37° C.
Experimental: (§1) Broth cultures are diluted enough so that the final inoculum is about 10^4 colony forming units/ml (CFU/ml).

[3] = tested on: Staphylococcus epidermidis ATCC 12228; assay: In vitro MIC, two-fold dilution test in microtiter; assay type: cell-based; settings: Oxoid ISO-SENSITEST broth, inoculum about 10^4 CFU/ml, 18-24 h at 37° C.
Experimental: as §1

[4] = tested on: Streptococcus faecalis ATCC 7080; assay: In vitro MIC, two-fold dilution test in microtiter; assay type: cell-based; settings: Oxoid ISO-SENSITEST broth, inoculum about 10^4 CFU/ml, 18-24 h at 37° C.
Experimental: as §1

Strept. pyogenes C 203 = assay: In vitro MIC, two-fold dilution test in microtiter; assay type: cell-based, Streptococcus pyogenes; settings: Difco Todd-Hewitt broth, inoculum about 10^4 CFU/ml, 18-24 h at 37° C.
Experimental: as §1

Streptococcus mitis 796 = assay: In vitro MIC, two-fold dilution test in microtiter; assay type: cell-based; settings: inoculum about 10^4 CFU/ml, 18-24 h at 37° C.
Experimental: as §1

[5] = tested on: Streptococcus pneumoniae UC41; assay: In vitro MIC, two-fold dilution test in microtiter; assay type: cell-based; settings: Difco Todd-Hewitt broth, inoculum about 10^4 CFU/ml, 18-24 h at 37° C.
Experimental: as §1

[6] = methyl cellosolve/H2O 4/1, excess 0.01M HCl, titrated with 0.01N NaOH

| Substance | pKa1 [1, 6] | pKa2 [1, 6] | pKa3 [1, 6] | MIC, STAPH. AUREUS TOUR [2] [micrograms/ml] | MIC, STAPH. EPIDERMIDIS ATCC 12228 [3] [micrograms/ml] | MIC, STREPT. FAECALIS ATCC 7080 [4] [micrograms/ml] | MIC, STREPT. PYOGENES C 203 (Strept. pyogenes C 203) [micrograms/ml] | MIC, STREPT. MITIS 796 (Streptococcus mitis 796) [micrograms/ml] | MIC, STREPT. PNEUMONIAE UC 41 [5] [micrograms/ml] | pKa1 [1] | pKa2 [1] | pKa3 [1] |
| --- | --- | --- | --- | --- | --- | --- | --- | --- | --- | --- | --- | --- |
| reductive cleavage product of antibiotic L 17046 [Example 4] | 4.6 | 5.8 | 7.5 | – | – | – | – | – | – | – | – | – |
| reductive cleavage product of vancomycin [Example 6] | – | – | – | 16 | 32 | 16 | 8 | – | – | – | – | – |
| reductive cleavage product of teicoplanin A2 component 2 [Example 2] | – | – | – | 8 | 2 | 4 | 1 | 4 | 4 | 4.1 | 5.9 | 7.3 |
| reductive cleavage product of antibiotic L 17392 [Example 5] | – | – | – | 4 | 2 | 16 | 8 | 16 | 16 | 4.5 | 5.5 | – |
| reductive cleavage product of antibiotic L 17054 [Example 3] | 4.7 | – | – | – | – | – | – | – | – | – | – | – |
| reductive cleavage product of ristocetin [Example 8] | – | 6.2 | 7.8 | – | – | – | – | – | – | – | – | – |
| reductive cleavage product of antibiotic A/40926 [Example 9] | – | – | – | 16 | – | – | 2 | – | 16 | 4.5 | 5.9 | 7.5 |
